Reference: US20100130598A1, “METHODS FOR INDUCING PROGRAMMED CELL DEATH” (Novogen Research Pty Ltd., priority 2008, published 2010)

How the values were obtained:
EndoG = experiment: Immunohistochemistry of xenograft tumors for EndoG; type: in vivo, NCR nude mice; conditions: paraffin-embedded tumor sections; control tumors only cytoplasmic staining
Protocol: Mouse xenograft studies. The in vivo study as approved by the Yale University Institutional Animal Care & Use Committee. Cells (1×10^6 cells) were resuspended in 200 μ1 total volume of 50% RPMI and 50% BD Matrigel Matrix (BD Biosciences, Bedford, Mass.) and injected subcutaneously into the right flank of NCR nude mice. Intra-peritoneal therapy commenced eight days post-inoculation as follows: Paclitaxel 10 mg/kg q×3d, Carboplatin 40 mg/kg q×7d, and Compound 1 in 20% HPBCD, 100 mg/kg every day. Control groups received 20% HPBCD in PBS. Mice were treated and observed for 3 weeks. Tumor size was determined by caliper measurements and anti-tumor activity was analyzed with respect to maximal tumor inhibition (treated/control, T/C) as described previously (Kamsteeg et al, 2003).
Immunohistochemistry. Immunohistochemistry was performed as described previously (Kelly et al, 2006) using rabbit anti-EndoG (Lifespan Biosciences, Seattle, Wash.) at 1:100 dilution.

XIAP = experiment: Western blot of EOC whole cell lysates for XIAP; type: cell-based, human; conditions: EOC cells, 10 g/ml (as printed, FIG. 2 legend)
Description: (§1) Protein preparation and cellular fractionation. After drug treatment, protein was extracted and measured as previously described (Alvero et al, 2006). For separation of the cytoplasmic and mitochondrial fractions, cell pellets were processed using the ApoAlert™ Cell Fractionation Kit (BD Biosciences, San Jose, Calif.) according to the manufacturer's instructions. For separation of the cytoplasmic and nuclear fractions, pellets were processed using NE-PER Nuclear and Cytoplasmic Extraction (Pierce Biotechnology, Inc., Rockford, Ill.).
(§2) SDS-PAGE and Western blots. Cell lysates (20 μg protein) were denatured in sample buffer (2.5% SDS, 10% glycerol, 5% β-mercapto-ethanol, 0.15 M Tris (pH=6.8) and 0.01% bromophenol blue) and subjected to 12% SDS-PAGE as previously described (Kamsteeg et al, 2003). […]

[1] = system: phosphorylated Akt (p-Akt); experiment: Western blot of EOC whole cell lysates for phospho-Akt; type: cell-based, human; conditions: EOC cells, 10 g/ml (as printed, FIG. 2 legend), as early as 15 mins post-treatment
Description: as §1, §2

Beclin-1 / Bcl2 = experiment: Beclin-1 immunoprecipitation from mitochondrial fraction, probed for Bcl2 and Bak; type: cell-based, human; conditions: 10 μg/ml, 1 h
Protocol: SDS-PAGE and Western blots. Cell lysates (20 μg protein) were denatured in sample buffer (2.5% SDS, 10% glycerol, 5% β-mercapto-ethanol, 0.15 M Tris (pH=6.8) and 0.01% bromophenol blue) and subjected to 12% SDS-PAGE as previously described (Kamsteeg et al, 2003). The following antibodies and concentrations were used: mouse anti-XIAP (BD, 1:1,000), rabbit anti-MAP LC3 (1:200), rabbit anti-actin (Sigma, 1:10,000), rabbit anti-phosphorylated Akt (Cell Signaling, 1:1,000), rabbit anti-Akt (Cell Signaling, 1:1000), rabbit anti-phosphorylated mTOR (Cell Signaling, 1:1000), rabbit anti-mTOR (Cell Signaling, 1:1000), rabbit anti-cytochrome c (Clontech Laboratories, Inc, Mountainview, Calif., 1:100), rabbit anti-Omi (R&D Systems, Minneapolis, Minn., 1:5000), rabbit anti-Bid (Cell Signaling, 1:1000), mouse anti-Bax (BD Pharmingen, 1:250), rabbit anti-VDAC (Sigma Aldrich, 1:2000), mouse anti-Bcl2 (BD Pharmingen, 1:500), rabbit anti-AIF (Sigma Aldrich, 1:1000), rabbit anti-EndoG (Sigma Aldrich, 1:1000), mouse anti-topoisomerase I (BD Pharmingen, 1:10,000). Proteins were visualized using enhanced chemiluminescence (Pierce, Rockford Ill.).
Immunoprecipitation. […]

HPAC cells [2] = experiment: Mitochondrial membrane potential by FACS (JC-1), HPAC; type: cell-based, human; conditions: dose-dependent, 48 hrs of treatment
Protocol: (§3) Cells. Human pancreatic cell lines HPAC, MIAPaCa-2 and PANC-1 were obtained from the ATCC. (Manassas, Va.). The cells were maintained in DMEM media with Gln and high glucose (Mediatech, Manassas, Va.) with 10% fetal bovine serum (FBS, HyClone, Logan, Utah) and pencillin/streptomycin.
(§4) FACS Analysis. Apoptosis was measured by FACS analysis using Annexin-V-FITC and propidium iodide (PI) (Biovision, Mountain View, Calif.) as probes (Ahn et al., 2003). Mitochondrial membrane potential was measured by FACS analysis using JC-1 (Biovision) as a probe (Ahn et al., 2003). Cell cycle was analyzed on ethanol-fixed, RNaseA-treated cells staining with PI. In each spectrum, 10,000 gated events were recorded and analyzed with a FACSCalibur (BD Biosciences. San Jose, Calif.). All experiments were done in triplicate, error bars represent one standard deviation. Caspase inhibitor I (zVAD-fmk) was obtained from Calbiochem.

HPAC cells [3] = experiment: Cell cycle analysis by FACS (PI), HPAC; type: cell-based, human; conditions: 10 μM, accompanied with an arrest in G0/G1, transient
Protocol: as §3, §4

PANC-1 cells [4] = experiment: Cell cycle analysis by FACS (PI), PANC-1; type: cell-based, human; conditions: PANC-1, 10 μM
Protocol: as §3, §4

PANC-1 cells [5] = experiment: Mitochondrial membrane potential by FACS (JC-1), PANC-1; type: cell-based, human; conditions: PANC-1, dose-dependent, 48 hrs of treatment
Protocol: as §3, §4

[6] = system: Caspase 2, 3 and 9 in MIAPaCa-2 cells; experiment: In situ caspase activity by flow cytometry, MIAPaCa-2; type: cell-based, human; conditions: MIAPaCa-2, 10 μM, after 48 hrs
Protocol: as §3
Caspase Activity After 48 h treatment with 10 μM Compound 10, HPAC, MIAPaCa-2 and PANC-1 cells were harvested by trypsinization and resuspended in DMEM media with 10% FBS. The cells were incubated with caspase substrates for 1 h at 37° C., 5% CO2, then probed with Annexin-V-Cy5 and sytox blue. Caspase +ve cells were gated as shown in the histograms and these cells are indicated on the Annexin-V-Cy5/sytox blue spectra as blue cells. In situ caspase activity was assayed using fluorescent substrates. For Caspase 2, FITC-VDVAD-fmk (Biovision K182-100), for Caspase 3, FITC-DEVD-fmk (K183-100) and for Caspase 9, FITC-LEHD-fmk (K199-100) was used. These substrates bind irreversibly to their respective activated caspases, and caspase activation was quantitated by flow cytometry. […] Caspase activation, apoptosis and necrosis were measured simultaneously using a violet, blue and red laser in a BD LSRII flow cytometer.

| Structure (SMILES) | localization of EndoG in tumors (EndoG) | status of XIAP (XIAP) | p-Akt level [1] | Bak in complex with Beclin-1 (Beclin-1 / Bcl2) | Bcl2 in complex with Beclin-1 (Beclin-1 / Bcl2; vs no treatment control) | mitochondrial depolarization (HPAC cells [2]) | G2/M arrest (HPAC cells [3]) | time of G2/M arrest post treatment (PANC-1 cells [4]) | time remained in G2/M arrest (PANC-1 cells [4]) | mitochondrial depolarization (PANC-1 cells [5]) | caspase 2, 3 and 9 activation [6] |
| --- | --- | --- | --- | --- | --- | --- | --- | --- | --- | --- | --- |
| COc1ccc(C2c3ccc(O)c(C)c3OCC2c2ccc(O)cc2)cc1 (centres unmarked) [Compound 1, 3-(4-hydroxyphenyl)-4-(4-methoxyphenyl)-8-methylchroman-7-ol] | nuclear localization | no change | strong down-regulation | not observed | Higher levels | – | – | – | – | – | – |
| COc1ccc(C2c3ccc(O)cc3OCC2c2ccc(O)cc2)cc1 (centres unmarked) [Compound 10, 3-(4-hydroxyphenyl)-4-(4-methoxyphenyl)chroman-7-ol] | – | – | – | – | – | depolarized | less pronounced | 4 to 24 h | at least 48 hrs | depolarized | activated |
